Molecules are shown by their SMILES. Entries after “also recorded” stand apart in the source; their conditions may differ. Where a SMILES comes first, the peptide text is derived from it. The star is where a group is joined. X1 = NC(=O)CCOCCOCCOCCOCCOCCOCCOCCOCCOCCOCCOCCOCCOCCOCCOCCOCCOCCOCCOCCOCCOCCOCCOCCOCCOCCOCCOCCOCCN*

The subject of data set [1] is ERK1/2 phosphorylation. The experiment in a line: Signal transduction assay, Western blotting of phospho-ERK1/2 in AML14.3D10-CCR3 cells. The class given is cell-based, human. On the procedure: Phospho-ERK was detected using a specific antibody. The membrane was stripped and reprobed for total ERK1/2 as loading control. Immunoblots were quantified by densitometry using ImageJ. PD: PD184161, MEK inhibitor.
AML14.3D10-CCR3 cells were serum starved for 16 hours. Cells were pretreated with vehicle control, R3-2-1 or PD184161 for 30 minutes at 37° C., and subsequently stimulated with 8 nM CCL5 or CCL11 for 2 minutes. Stimulation was stopped by adding ice cold PBS. Cells were centrifuged and lysed in RIPA buffer containing protease and phosphatase inhibitors. Cell lysates were resolved on a 12% SDS-PAGE gel (10 μg/lane), transferred to PVDF membrane and blocked in 5% milk. Phospho-ERK1/2 was detected using rabbit monoclonal antibody (clone D13.14.4E, Cell Signaling Technology, Danvers, Mass.) and secondary goat anti-rabbit IgG-HRP (Santa Cruz Biotechnology, Dallas, Tex.). As a loading control, the membrane was subsequently stripped and re-probed with an antibody against total ERK1/2 (clone 127F5, Cell Signaling Technology).
Concurrent to ligand binding and activation, CCR3 undergoes ligand-induced desensitization and internalization (Zimmermann, et al. (1999) J. Biol. Chem. 274:12611-12618). As part of the desensitization process, CCR3 is degraded. This is thought to occur via β-arrestin recruitment to phosphorylated CCR3 and subsequent sequestration of the receptor into endosomal compartments, eventually leading to degradation. β-arrestin signaling is central in this process and is characterized by a late activation of signaling pathways such as MAPK/ERK1/2, in contrast to acute activation by G proteins. […] Therefore, the R3-2-1 peptide is a biased antagonist in that it inhibits the […] of CCL11 ligand-induced β-arrestin signaling, whereas the small molecule inhibitors are unbiased antagonists.
A general note: A western blot detects proteins with antibodies after separation by electrophoresis.

For data set [2], the target named is T1, CCR3 (Homo sapiens, UniProt P51677).
T1 sequence (P51677 1-355): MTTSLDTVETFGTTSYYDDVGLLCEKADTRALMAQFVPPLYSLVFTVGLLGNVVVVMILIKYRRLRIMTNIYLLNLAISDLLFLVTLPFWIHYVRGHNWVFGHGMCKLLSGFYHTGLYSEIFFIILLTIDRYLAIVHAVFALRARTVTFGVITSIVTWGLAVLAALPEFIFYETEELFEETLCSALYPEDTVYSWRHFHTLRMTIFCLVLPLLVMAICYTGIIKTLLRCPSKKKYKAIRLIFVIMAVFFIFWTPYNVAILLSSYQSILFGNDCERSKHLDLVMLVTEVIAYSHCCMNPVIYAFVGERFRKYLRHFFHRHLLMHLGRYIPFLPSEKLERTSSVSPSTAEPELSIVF
In words: CCR3 surface expression and internalization by flow cytometry, AML14.3D10-CCR3 cells. The class given is cell-based. Also on record: host or cells: AML14.3D10-CCR3 (eosinophilic myelocytic cell line, kept under G418). On the procedure: Error bars represent SEM. *p<0.05, compared to untreated cells; n=3.
To assess surface expression of CCR3, cells were stained using PE-conjugated anti-human CCR3 antibody (clone 5E8, BioLegend) or PE-conjugated isotype-matched control after blocking with 10% human AB serum. To determine ligand-induced CCR3 internalization, cells were incubated with various chemokines for 1 hour at 37° C., washed once in staining buffer (PBS+0.5% BSA+0.1% NaN3) before being stained as above. After antibody staining, cells were fixed in 2% paraformaldehyde and analyzed on a QUANTA SC flow cytometer (Beckman Coulter, Indianapolis, Ind.).

The nature of data set [3]: Dynamic light scattering of peptide solution. It is filed as physicochemical. To be noted: aqueous environment; 0.4 mg/ml in PBS. The text has this:
As indicated herein, the CCR3 peptide analog self-assembles in aqueous medium into highly homogenous nanoparticles. Dynamic light scattering analyses indicate that the radius of the instant nanoparticles is in the range of 1 to 100 nm, more specifically about 8 nm (FIG. 1). Based upon the size and composition, the nanoparticles facilitate translocation of the peptide through the plasma membrane and protect the peptide from degradation in the blood/serum or other body fluids. Accordingly, this invention also provides a nanoparticle composition containing the CC3 peptide analog as well as methods of using the nanoparticle composition to antagonize CCR3 and in the treatment of inflammatory diseases such as asthma, and eosinophilic esophagitis.

Data set [4] has as its system Gαi. The experiment in a line: Gαi activation, pull-down of GTP-bound Gαi in AML14.3D10-CCR3 cells. It is filed as cell-based, human. To be noted: 10 μM, 8 nM CCL11. Here is the method:
GTP-bound Gal was detected using a commercial Gαi assay kit (Abcam, Cambridge, Mass.) with modifications. Briefly, AML14.3D10-CCR3 cells were serum-starved for 16 hours before being pretreated with […] pertussis toxin for 2 hours, 10 μM R3-2-1 for 30 minutes, or with vehicle control. Pretreated cells were then stimulated with 8 nM CCL11 or medium for 1 minute. The reaction was stopped by adding ice cold PBS. Ten (10) million cells were used for each condition. Washed cells were lysed with 1× lysis buffer following manufacturer instructions. For pull-down of active Gαi, mouse anti-GTP bound Gαi antibody was conjugated to DYNABEADS Protein G (Life Technologies, Carlsbad, Calif.) for 15 minutes at room temperature. Conjugated beads were washed 3 times with Tris-buffered saline+TWEEN® polysorbate (TBST) and incubated with cell lysates for 20 minutes at room temperature. After washing with TBST, bound proteins were eluted by boiling the beads in 2×SDS buffer for 5 minutes. Eluates were resolved by SDS-PAGE and immunoblotted using a polyclonal rabbit anti-total Gαi antibody (Cell Signaling Technology).

For data set [5], the target named is T1, CCR3. In words: CCR3 degradation in cycloheximide-treated AML14.3D10-CCR3 cells, immunoblot. The following applies: 10 μM, 8 nM eotaxin or RANTES for 3 hours. It is filed as cell-based. The arrangement: host or cells: AML14.3D10-CCR3 (eosinophilic myelocytic cell line, kept under G418). Here is the method: AML14.3D10-CCR3 cells were resuspended in RPMI-1640+0.1% BSA. Aliquots of 1×10^6 cells were pretreated with 10 μM cycloheximide for 1 hour at 37° C. Some cells were concurrently pretreated with 10 μM R3-2-1, 10 μM MG132, or both for 30 minutes. Pretreated cells were stimulated with 8 nM eotaxin or RANTES for 3 hours to induce receptor degradation. An aliquot of untreated cells were reserved at the start of the experiment to establish baseline CCR3 expression. All cells were then lysed in RIPA buffer and immunoblotted for CCR3 with a polyclonal rabbit anti-CCR3 antibody (Abcam) followed by goat anti-rabbit IgG-HRP secondary antibody (Santa Cruz).

As to `CC[C@H](C)[C@H](NC(=O)[C@H](Cc1c[nH]c2ccccc12)NC(=O)[C@H](Cc1ccccc1)NC(=O)[C@@H]1CCCN1C(=O)[C@H](CC(C)C)NC(=O)[C@@H](NC(=O)[C@@H](NC(=O)[C@H](CC(C)C)NC(=O)[C@H](Cc1ccccc1)NC(=O)[C@H](CC(C)C)NC(=O)[C@@H](N)CC(C)C)C(C)C)[C@@H](C)O)C(=O)N[C@@H](Cc1c[nH]cn1)C(=O)N[C@@H](Cc1ccc(O)cc1)C(=O)N[C@H](C(=O)N[C@@H](CCCNC(=N)N)C(=O)NCC(=O)N[C@@H](Cc1c[nH]cn1)C(=O)N[C@@H](CC(N)=O)C(=O)N[C@@H](Cc1c[nH]c2ccccc12)C(=O)N[C@H](C(=O)N[C@@H](Cc1ccccc1)C(=O)NCC(=O)N[C@@H](Cc1c[nH]cn1)C(=O)N[C@@H](CC(=O)O)C(=O)N[C@@H](CC(=O)O)C(=O)N[C@@H](CC(=O)O)C(=O)NCCOCCOCCOCCOCCOCCOCCOCCOCCOCCOCCOCCOCCOCCOCCOCCOCCOCCOCCOCCOCCOCCOCCOCCOCCOCCOCCOCCOCCC(N)=O)C(C)C)C(C)C` [Peptide R3-2-1] (H-LLFLVTLPFWIHYVRGHNWVFGHDDD-X1; N-terminus assumed), in data set [1] (10 μM, CCL11-induced), the “acute (2-5 minutes) and late (30 minutes) phase phosphorylation of ERK1/2” value is “inhibits only acute phosphorylation of ERK1/2”. The “inhibition of ERK1/2 phosphorylation induced by RANTES and eotaxin” value in data set [1] (2 and 10 μM, 8 nM CCL5 or CCL11 for 2 minutes) was “inhibits activation of the MAPK pathway; also recorded: attenuated”. Moreover, in data set [2] (1 μM for 24, 48 or 72 hour, with or without CCL11 (12 nM)), the “CCR3 internalization or surface accumulation on prolonged treatment” value is recorded as “promotes CCR3 internalization”. Also, the CCL11-induced receptor internalization entry in data set [2] (1 μM, added concurrently with 12 nM CCL11) is recorded as “neither R3-2-1 (1 μM) nor R3-2-3 (1 μM) interfere with CCL11-induced receptor internalization”. Besides, the “CCL11-induced CCR3 endocytosis” value in data set [2] (2 or 10 μM) is reported as “does not inhibit CCL11-induced CCR3 endocytosis”. Further, in data set [2] (AML14.3D10-CCR3 cells, significant at 1 μM), the “surface CCR3 expression in the absence of CCR3 ligand” value is recorded as “significantly decreases surface CCR3 expression”. For the same molecule, the “hydrodynamic radius of self-assembled nanospheres” value in data set [3] is listed as “approximately 8 nm”. In data set [4], the “activation of Gαi (GTP-bound form)” value is on record as “inhibit the activation of Gαi”. Also, the “CCR3 degradation induced by eotaxin and RANTES” value in data set [5] was “enhanced CCR3 degradation induced by eotaxin and RANTES”.

Values taken from patent publication US11167012B2, “Peptide inhibition of CCR3-mediated diseases or conditions” (The Board of Trustees of the University of Illinois, priority 2015, dated 2021).
